Measured values as given in the supplement of paper PMC5908809.

Tests used:
[1] = tested on: normal NK cells expanded with K562-aAPC; test: drug sensitivity score (DSS) (DSS units); higher = more sensitive; extreme values may be limits of the assay; details: 72 h; IL-2 2.5 ng/mL
Method: (§1)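 Drug sensitivity and resistance testing on K562-aAPC-expanded normal NK cells: 5 concentrations (10-fold steps over a 10,000-fold range), 72 h at 37 °C, viability by CellTiter-Glo normalised to DMSO and benzethonium chloride controls; DSS from the fitted curve.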

[2] = tested on: KHYG-1 (IL-2 2.5 ng/mL); test: percent inhibition of viability; higher = more inhibition; details: 72 h
[3] = tested on: SNK-6 (IL-2 2.5 ng/mL); test: as above; details: 72 h
[4] = tested on: normal primary NK cells, pool 1 (3 donors) (IL-2 2.5 ng/mL); test: as above; details: 72 h
[5] = tested on: DERL-7 (IL-2 2.5 ng/mL); test: as above; details: 72 h
[6] = tested on: KAI3 (IL-2 2.5 ng/mL); test: as above; details: 72 h
[7] = tested on: IMC-1 (IL-2 20 ng/mL); test: as above; details: 72 h
[8] = tested on: NKL (IL-2 2.5 ng/mL); test: as above; details: 72 h
[9] = tested on: normal primary NK cells, pool 1 (3 donors), resting (IL-2 0 ng/mL); test: as above; details: 72 h
[10] = tested on: YT (IL-2 2.5 ng/mL); test: as above; details: 72 h
[11] = tested on: NK-YS (IL-2 2.5 ng/mL); test: as above; details: 72 h
[12] = tested on: normal primary NK cells, pool 3 (3 donors) (IL-2 2.5 ng/mL); test: as above; details: 72 h
[13] = tested on: normal primary NK cells, pool 2 (3 donors) (IL-2 2.5 ng/mL); test: as above; details: 72 h
[14] = tested on: NK-92 (IL-2 2.5 ng/mL); test: as above; details: 72 h
[15] = tested on: KHYG-1 (IL-2 2.5 ng/mL); test: drug sensitivity score (DSS) (DSS units); higher = more sensitive; extreme values may be limits of the assay; details: 72 h
[16] = tested on: SNK-6 (IL-2 2.5 ng/mL); test: as above; details: 72 h
[17] = tested on: normal primary NK cells, pool 1 (3 donors) (IL-2 2.5 ng/mL); test: as above; details: 72 h
[18] = tested on: DERL-7 (IL-2 2.5 ng/mL); test: as above; details: 72 h
[19] = tested on: KAI3 (IL-2 2.5 ng/mL); test: as above; details: 72 h
[20] = tested on: IMC-1 (IL-2 20 ng/mL); test: as above; details: 72 h
[21] = tested on: NKL (IL-2 2.5 ng/mL); test: as above; details: 72 h
[22] = tested on: normal primary NK cells, pool 1 (3 donors), resting (IL-2 0 ng/mL); test: as above; details: 72 h
[23] = tested on: YT (IL-2 2.5 ng/mL); test: as above; details: 72 h
[24] = tested on: NK-YS (IL-2 2.5 ng/mL); test: as above; details: 72 h
[25] = tested on: normal primary NK cells, pool 3 (3 donors) (IL-2 2.5 ng/mL); test: as above; details: 72 h
[26] = tested on: normal primary NK cells, pool 2 (3 donors) (IL-2 2.5 ng/mL); test: as above; details: 72 h
[27] = tested on: NK-92 (IL-2 2.5 ng/mL); test: as above; details: 72 h
[28] = tested on: normal NK cells expanded with K562-aAPC; test: percent inhibition of viability; higher = more inhibition; details: 72 h, IL-2 2.5 ng/mL
Method: as §1

COc1ccc(Cl)c(Nc2nc3ccccc3nc2NS(=O)(=O)c2cccc(NC(=O)C(C)(C)N)c2)c1 [Pilaralisib] (max concentration tested 2500 nM)
Details	drug sensitivity score
[1]	0.55
[15]	1.04
[16]	0.01
[17]	0.02
[18]	2.77
[19]	1.25
[20]	0
[21]	1.45
[22]	1.41
[23]	2.91
[24]	0.68
[25]	0.19
[26]	1.39
[27]	6.61

percent inhibition of viability [%]
Details	0.25 nM	2.5 nM	25 nM	250 nM	2500 nM
[2]	-8.15	-0.08	-3.78	6.51	17.4
[3]	-25.1	-17.9	-11.5	-18.6	12.9
[4]	-2.73	-2.17	6.91	0.33	11.2
[5]	4.27	-2.64	5.48	2.26	47.2
[6]	-9.17	-2.97	-7.92	0.18	28.9
[7]	-10.7	-5.75	-6.19	-0.79	3.28
[8]	-14.9	-17.9	-13.7	0.37	31.5
[9]	-1.59	14	8.93	7.44	20.9
[10]	-4.96	-1.45	0.38	4.73	42
[11]	-9.63	-5.01	-7.74	-2.2	23.1
[12]	-0.55	-0.41	8.73	-3.82	16
[13]	-6.75	-2.47	3.08	7.62	22.6
[14]	1.29	7.6	3.1	33.3	47.3
[28]	-5.86	-9.89	-4.45	9.09	13

O=C(CCCCCCC(=O)Nc1ccccc1)NO [Vorinostat] (max concentration tested 10000 nM)
Details	drug sensitivity score
[1]	12.2
[15]	15.2
[16]	13
[17]	15.7
[18]	13.7
[19]	17.3
[20]	7.28
[21]	16.4
[22]	14.8
[23]	9.63
[24]	10.9
[25]	7.93
[26]	10.8
[27]	15.4

percent inhibition of viability [%]
Details	1 nM	10 nM	100 nM	1000 nM	10000 nM
[2]	-10.8	-5.48	-3.11	83.4	108
[3]	1.27	-7.67	9.77	59.8	100
[4]	10.5	10	21.7	67.8	98.3
[5]	-1.03	-2.59	-8.59	72	101
[6]	-1.17	1.24	28.6	72.4	106
[7]	-3.93	-0.96	-3.21	10.4	101
[8]	-8.87	-13.6	15.1	78.1	107
[9]	-1.81	11.6	10.4	71.9	90.8
[10]	-0.8	-1.86	3.47	27.2	106
[11]	-9.89	-6.61	-3.67	40.2	105
[12]	-8.36	-6.48	0.69	14.9	98.3
[13]	-5.53	-2.6	-3.11	42.6	96.4
[14]	-12.1	-8.53	8.96	76.6	107
[28]	-0.79	-2.42	2.48	56.2	100

Cc1c(N)nc([C@H](CC(N)=O)NC[C@H](N)C(N)=O)nc1C(=O)N[C@H](C(=O)N[C@H](C)[C@@H](O)[C@H](C)C(=O)N[C@H](C(=O)NCCc1nc(-c2nc(C(=O)NCCC[S+](C)C)cs2)cs1)[C@@H](C)O)[C@@H](OC1OC(CO)C(O)C(O)C1OC1OC(CO)C(O)C(OC(N)=O)C1O)c1cnc[nH]1 (stereo partly specified) [Bleomycin] (max concentration tested 10000 nM)
Details	drug sensitivity score
[1]	7.53
[15]	4.93
[16]	27.6
[17]	3.94
[18]	8.38
[19]	11.2
[20]	5.31
[21]	10.6
[22]	4.07
[23]	4.81
[24]	11.1
[25]	6.94
[26]	7.05
[27]	13.2

percent inhibition of viability [%]
Details	1 nM	10 nM	100 nM	1000 nM	10000 nM
[2]	-3.86	-5.7	-1.32	7.38	67.6
[3]	9.29	19.8	68.8	97	101
[4]	-8.98	2.35	-2.19	6.69	52.9
[5]	0.04	-2.28	1.21	29.5	78.2
[6]	-4.06	-8.69	8.99	52.9	77
[7]	-0.57	-6.19	5.49	17.2	56.8
[8]	-14.6	-9.35	-1.37	39.7	96.6
[9]	-6.18	-0.23	-9.89	-6.49	82
[10]	-2.74	-1.16	1.84	13.3	51.6
[11]	-1.93	-5.64	6.84	52.8	81.4
[12]	-10.1	-1.71	12.2	27.9	68.2
[13]	-11.5	-5.49	-1.39	19.4	73.8
[14]	-18	-20.7	13.2	60.3	99
[28]	3.15	-1.5	7.63	34.1	62.5

CS(=O)(=O)N1CCN(Cc2cc3nc(-c4cccc5[nH]ncc45)nc(N4CCOCC4)c3s2)CC1 [Pictilisib] (max concentration tested 10000 nM)
Details	drug sensitivity score
[1]	5.88
[15]	4.95
[16]	2.73
[17]	8.06
[18]	12.9
[19]	4.66
[20]	0
[21]	9.46
[22]	8.8
[23]	6.22
[24]	6.66
[25]	2.3
[26]	4.41
[27]	11

percent inhibition of viability [%]
Details	1 nM	10 nM	100 nM	1000 nM	10000 nM
[2]	-3.48	-3.66	-5.51	9.17	62.5
[3]	9.42	16.7	-3.54	3.83	42
[4]	-12	-5.63	1.66	32.2	72.9
[5]	0.8	4.11	16.1	57.5	87.1
[6]	-6.58	2.21	8.79	17.4	52.6
[7]	-6.08	-5.88	-14.1	-27.2	-37
[8]	-16	-14.4	-0.35	45.4	73.1
[9]	-0.3	-14.8	0.53	45.2	63.4
[10]	-3.11	-1.03	5.07	24.7	62
[11]	0.04	3.57	4.67	27.4	64.3
[12]	-9.78	-13.3	-0.72	3.18	37.3
[13]	-12.1	3.86	0.41	8.6	55.1
[14]	4.34	0.31	30.3	36.6	73.9
[28]	2.02	0.78	10.8	25.4	51.1
